From patent US20030224978A1, “Compounds and methods for modulating apoptosis” (McGill University, priority 1996, published 2003)

Target: T1, N-cadherin (Gallus gallus, UniProt P10288)
T1 construct: expressed in transfected cells; host or cells: 3T3 fibroblasts
T1 sequence (P10288 165-912): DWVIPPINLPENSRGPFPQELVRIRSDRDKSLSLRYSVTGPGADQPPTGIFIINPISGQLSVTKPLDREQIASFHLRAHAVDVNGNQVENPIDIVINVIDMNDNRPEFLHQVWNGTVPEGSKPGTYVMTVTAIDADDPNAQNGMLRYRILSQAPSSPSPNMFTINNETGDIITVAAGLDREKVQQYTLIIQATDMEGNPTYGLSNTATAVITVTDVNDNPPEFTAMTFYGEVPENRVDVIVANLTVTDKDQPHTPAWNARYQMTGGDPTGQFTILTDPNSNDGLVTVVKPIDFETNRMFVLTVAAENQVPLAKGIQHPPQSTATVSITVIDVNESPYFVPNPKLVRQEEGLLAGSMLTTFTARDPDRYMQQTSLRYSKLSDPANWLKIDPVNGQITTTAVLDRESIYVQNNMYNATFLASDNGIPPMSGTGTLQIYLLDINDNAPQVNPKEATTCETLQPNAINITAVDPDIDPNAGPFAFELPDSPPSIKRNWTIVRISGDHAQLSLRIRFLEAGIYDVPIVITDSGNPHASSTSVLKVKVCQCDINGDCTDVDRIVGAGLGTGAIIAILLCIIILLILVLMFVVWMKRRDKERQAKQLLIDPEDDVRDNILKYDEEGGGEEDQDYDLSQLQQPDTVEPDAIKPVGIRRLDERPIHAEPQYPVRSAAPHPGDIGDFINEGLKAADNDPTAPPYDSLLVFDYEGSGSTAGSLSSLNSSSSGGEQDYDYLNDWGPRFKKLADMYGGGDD
Experiment: Neurite outgrowth of mouse cerebellar neurons on 3T3 cells expressing N-cadherin (Example 2)
Assay type: cell-based
Excerpt: Within a representative neurite outgrowth assay, neurons may be cultured on a monolayer of cells (e.g., 3T3) that express N-cadherin. […] For example, neurons may be cultured on monolayers of 3T3 cells transfected with cDNA encoding N-cadherin essentially as described by Doherty and Walsh, Curr. Op. Neurobiol. 4:49-55, 1994; Williams et al., Neuron 13:583-594, 1994; Hall et al., Cell Adhesion and Commun. 3:441-450, 1996; Doherty and Walsh, Mol. Cell. Neurosci. 8:99-111, 1994; and Safell et al., Neuron 18:231-242, 1997. Briefly, monolayers of control 3T3 fibroblasts and 3T3 fibroblasts that express N-cadherin may be established by overnight culture of 80,000 cells in individual wells of an 8-chamber well tissue culture slide. 3000 cerebellar neurons isolated from post-natal day 3 mouse brains may be cultured for 18 hours on the various monolayers in control media (SATO/2%FCS), or media supplemented with various concentrations of the modulating agent or control peptide. The cultures may then be fixed and stained for GAP43 which specifically binds to the neurons and their neurites. The length of the longest neurite on each GAP43 positive neuron may be measured by computer assisted morphometry.
A modulating agent that modulates N-cadherin-mediated cell adhesion may inhibit or enhance such neurite outgrowth. Under the conditions described above, the presence of 500 μg/mL of a modulating agent that disrupts neural cell adhesion should result in a decrease in the mean neurite length by at least 50%, relative to the length in the absence of modulating agent or in the presence of a negative control peptide. Alternatively, the presence of 500 μg/mL of a modulating agent that enhances neural cell adhesion should result in an increase in the mean neurite length by at least 50%.
Neurons were cultured on monolayers of 3T3 cells transfected with cDNA encoding N-cadherin essentially as described by Doherty and Walsh, Curr. Op. Neurobiol. […] The length of the longest neurite on each GAP43 positive neuron was then measured by computer assisted morphometry.

| effect on neurite outgrowth on 3T3 cells expressing N-cadherin (500 μg/mL, 18 hours) | Structure (SMILES) | effect on neurite outgrowth on 3T3 cells expressing N-cadherin (50 μg/mL, dose-response study) |
| --- | --- | --- |
| had no effect | CC(=O)N[C@H]1CSSC[C@@H](C(N)=O)NC(=O)[C@H](C(C)C)NC(=O)CNC(=O)[C@H](Cc2c[nH]cn2)NC1=O [N-Ac-CHGVC-NH2, reference compound] |  |
| completely inhibited neurite outgrowth | CC(=O)N[C@H]1CSSC[C@@H](C(N)=O)NC(=O)[C@H](C(C)C)NC(=O)[C@H](C)NC(=O)[C@H](Cc2c[nH]cn2)NC1=O [N-Ac-CHAVC-NH2, N-Ac-Cys-His-Ala-Val-Cys-NH2] | significantly inhibited neurite outgrowth |
